# “And” between values parts separate entries of the source, which are not always exact repeats. Equal entries are not always repeated. Inconclusive results and toxic doses are left out.
# Tested on: P388 leukemia ip, CD2F1 mice, survival T/C
# Assay: NCI In Vivo Anticancer Drug Screen. Data for tumor model P388 Leukemia (intraperitoneal) in CD2F1 (CDF1) mice
# Details: endpoint: median survival time, higher = longer survival
# Description: The antitumor activity of compounds was measured in mice bearing transplantable tumors. Survival or tumor size were measured and the results are expressed as the measurement made in the treated group (T) divided by the measurement made in the vehicle treated control group (C). The tumor model used in this assay is P388 Leukemia (intraperitoneal) in CD2F1 (CDF1) mice
# [1] = dose: 50.0 mg/kg/injection, schedule: Q01DX009 (ip), vehicle: saline with Tween-80
# [2] = dose: 100.0 mg/kg/injection, schedule: Q01DX009 (ip), vehicle: saline with Tween-80
# [3] = dose: 200.0 mg/kg/injection, schedule: Q01DX009 (ip), vehicle: saline with Tween-80
# [4] = dose: 400.0 mg/kg/injection, schedule: Q01DX009 (ip), vehicle: saline with Tween-80
# [5] = dose: 12.5 mg/kg/injection, schedule: Q01DX009 (ip), vehicle: saline with Tween-80
# [6] = dose: 25.0 mg/kg/injection, schedule: Q01DX009 (ip), vehicle: saline with Tween-80
# [7] = dose: 50.0 mg/kg/injection, schedule: Q01DX009 (ip), vehicle: Klucel (hydroxypropylcellulose) (HPC)
# [8] = dose: 100.0 mg/kg/injection, schedule: Q01DX009 (ip), vehicle: Klucel (hydroxypropylcellulose) (HPC)
# [9] = dose: 200.0 mg/kg/injection, schedule: Q01DX009 (ip), vehicle: Klucel (hydroxypropylcellulose) (HPC)
# [10] = dose: 100.0 mg/kg/injection, schedule: Q04DX003 (ip), vehicle: saline with Tween-80
# [11] = dose: 60.0 mg/kg/injection, schedule: Q01DX005 (ip), vehicle: saline with Tween-80
# [12] = dose: 120.0 mg/kg/injection, schedule: Q01DX005 (ip), vehicle: saline with Tween-80
# [13] = dose: 240.0 mg/kg/injection, schedule: Q01DX005 (ip), vehicle: saline with Tween-80
# [14] = dose: 50.0 mg/kg/injection, schedule: Q04DX003 (ip), vehicle: saline with Tween-80
# [15] = dose: 6.25 mg/kg/injection, schedule: Q01DX009 (ip), vehicle: saline
# [16] = dose: 12.5 mg/kg/injection, schedule: Q01DX009 (ip), vehicle: saline
# [17] = dose: 100.0 mg/kg/injection, schedule: Q01DX001 (ip), vehicle: Klucel (hydroxypropylcellulose) (HPC)
structure (smiles),measurement,setting,value
CC(=O)NC(Cc1ccc(F)cc1)C(=O)O (configuration not stated),T/C,[1],101 % of control and 109 % of control
same,T/C,[2],102 % of control and 109 % of control
same,T/C,[3],107 % of control and 95 % of control
same,T/C,[4],107 % of control and 113 % of control
same,T/C,"dose: 600.0 mg/kg/injection, schedule: Q01DX009 (ip), vehicle: saline with Tween-80",112 % of control and 124 % of control
CCCCN1CSC2CCCCC21 (configuration not stated),T/C,"dose: 25.0 mg/kg/injection, schedule: Q01DX005 (ip), vehicle: saline",98 % of control
same,T/C,"dose: 50.0 mg/kg/injection, schedule: Q01DX005 (ip), vehicle: saline",111 % of control and 93 % of control
same,T/C,"dose: 100.0 mg/kg/injection, schedule: Q01DX005 (ip), vehicle: saline",104 % of control and 111 % of control
same,T/C,"dose: 200.0 mg/kg/injection, schedule: Q01DX005 (ip), vehicle: saline",121 % of control
Cc1ccc2c(CC(C)(C)[N+]3(C)CCCC3)ccc(C(C)C)cc1-2,T/C,"dose: 100.0 mg/kg/injection, schedule: Q04DX002 (ip), vehicle: Klucel (hydroxypropylcellulose) (HPC)",114 % of control
same,T/C,"dose: 200.0 mg/kg/injection, schedule: Q04DX002 (ip), vehicle: Klucel (hydroxypropylcellulose) (HPC)",112 % of control
same,T/C,"dose: 400.0 mg/kg/injection, schedule: Q04DX002 (ip), vehicle: Klucel (hydroxypropylcellulose) (HPC)",105 % of control
CC1(C)COCN1COCCCOCN1COCC1(C)C,T/C,[5],102 % of control
same,T/C,[6],120 % of control
same,T/C,"dose: 150.0 mg/kg/injection, schedule: Q01DX009 (ip), vehicle: saline with Tween-80",118 % of control
Cc1ccc(NCCN(C)C)c2c(=O)c3ccc(O)cc3sc12,T/C,[1],110 % of control
same,T/C,[2],110 % of control
CC(=O)OC1C/C(C)=C/CCC(C)/C=C/C2(C)CCC(C(C)(C)O)C12 (configuration not stated),T/C,"dose: 8.0 mg/kg/injection, schedule: Q01DX009 (ip), vehicle: Klucel (hydroxypropylcellulose) (HPC)",105 % of control
same,T/C,"dose: 16.0 mg/kg/injection, schedule: Q01DX009 (ip), vehicle: Klucel (hydroxypropylcellulose) (HPC)",106 % of control
same,T/C,"dose: 32.0 mg/kg/injection, schedule: Q01DX009 (ip), vehicle: Klucel (hydroxypropylcellulose) (HPC)",106 % of control
same,T/C,"dose: 64.0 mg/kg/injection, schedule: Q01DX009 (ip), vehicle: Klucel (hydroxypropylcellulose) (HPC)",106 % of control
COc1c(Cl)ncnc1Cl,T/C,"dose: 25.0 mg/kg/injection, schedule: Q01DX009 (ip), vehicle: Klucel (hydroxypropylcellulose) (HPC)",100 % of control
same,T/C,[7],103 % of control
same,T/C,[8],110 % of control
same,T/C,[9],98 % of control
CNC(=S)N(C)C,T/C,"dose: 50.0 mg/kg/injection, schedule: Q01DX009 (ip), vehicle: saline",98 % of control
same,T/C,"dose: 100.0 mg/kg/injection, schedule: Q01DX009 (ip), vehicle: saline",99 % of control
same,T/C,"dose: 200.0 mg/kg/injection, schedule: Q01DX009 (ip), vehicle: saline",109 % of control
Cc1ccc(S(=O)(=O)Nc2cc(C)c3c(c2C)CCN=C3)cc1,T/C,"dose: 12.5 mg/kg/injection, schedule: Q01DX009 (ip), vehicle: distilled water + Tween-80",93 % of control
same,T/C,"dose: 25.0 mg/kg/injection, schedule: Q01DX009 (ip), vehicle: distilled water + Tween-80",91 % of control
same,T/C,"dose: 50.0 mg/kg/injection, schedule: Q01DX009 (ip), vehicle: distilled water + Tween-80",88 % of control
same,T/C,"dose: 100.0 mg/kg/injection, schedule: Q01DX009 (ip), vehicle: distilled water + Tween-80",93 % of control
same,T/C,"dose: 200.0 mg/kg/injection, schedule: Q01DX009 (ip), vehicle: distilled water + Tween-80",91 % of control
N#Cc1ccc[nH]c1=S,T/C,[1],95 % of control
same,T/C,[2],102 % of control
same,T/C,[3],104 % of control
CCCCCCCCCCC(=O)CC,T/C,[2],104 % of control
same,T/C,[10],100 % of control
same,T/C,[3],104 % of control
same,T/C,"dose: 200.0 mg/kg/injection, schedule: Q04DX003 (ip), vehicle: saline with Tween-80",100 % of control
same,T/C,[4],109 % of control
same,T/C,"dose: 400.0 mg/kg/injection, schedule: Q04DX003 (ip), vehicle: saline with Tween-80",100 % of control
Cc1cc(=O)oc2cc(OCc3c(F)cccc3Cl)ccc12,T/C,[11],97 % of control
same,T/C,[12],90 % of control
same,T/C,[13],91 % of control
COc1ccc(CC2C(=O)NC(C)C(=O)N(C)C3Cc4ccc(cc4)Oc4cc(ccc4OC(C)=O)CC(C(=O)NC(C)C(=O)NC(C)C(=O)N2C)N(C)C3=O)cc1 (configuration not stated),T/C,"dose: 2.0 mg/kg/injection, schedule: Q01DX009 (ip), vehicle: none",167 % of control
N#Cc1nnn2c1nc(N)c1c(Cl)cccc12,T/C,[11],98 % of control
same,T/C,[12],100 % of control
same,T/C,[13],100 % of control
NNC(=S)Nc1ccccc1,T/C,"dose: 1.25 mg/kg/injection, schedule: Q01DX009 (ip), vehicle: saline with Tween-80",104 % of control
same,T/C,"dose: 2.5 mg/kg/injection, schedule: Q01DX009 (ip), vehicle: saline with Tween-80",100 % of control
same,T/C,"dose: 5.0 mg/kg/injection, schedule: Q01DX009 (ip), vehicle: saline with Tween-80",95 % of control
O=[N+]([O-])c1ccc(/C=N/NC(=S)NC23CC4CC(CC(C4)C2)C3)o1,T/C,"dose: 50.0 mg/kg/injection, schedule: Q01DX005 (ip), vehicle: Klucel (hydroxypropylcellulose) (HPC)",92 % of control
same,T/C,"dose: 100.0 mg/kg/injection, schedule: Q01DX005 (ip), vehicle: Klucel (hydroxypropylcellulose) (HPC)",103 % of control
same,T/C,"dose: 200.0 mg/kg/injection, schedule: Q01DX005 (ip), vehicle: Klucel (hydroxypropylcellulose) (HPC)",94 % of control
CCCCCCCCCCCCCC(C)NCc1ccccc1 (configuration not stated),T/C,"dose: 25.0 mg/kg/injection, schedule: Q04DX003 (ip), vehicle: saline with Tween-80",96 % of control
same,T/C,[14],100 % of control
CC(C)(C#N)NNC(N)=S,T/C,"dose: 3.12 mg/kg/injection, schedule: Q01DX009 (ip), vehicle: saline",103 % of control
same,T/C,[15],100 % of control
same,T/C,[16],87 % of control and 93 % of control
same,T/C,"dose: 50.0 mg/kg/injection, schedule: Q04DX003 (ip), vehicle: saline",96 % of control
same,T/C,"dose: 100.0 mg/kg/injection, schedule: Q04DX003 (ip), vehicle: saline",96 % of control
same,T/C,"dose: 200.0 mg/kg/injection, schedule: Q04DX003 (ip), vehicle: saline",94 % of control
CCCCCCC1C(C#N)C(=O)NC(=O)C1C#N (configuration not stated),T/C,[7],96 % of control
same,T/C,[8],95 % of control
same,T/C,[9],93 % of control
CC1(C)C(/C=C\c2ccc(O)cc2)=Nc2ccccc21,T/C,"dose: 3.12 mg/kg/injection, schedule: Q01DX009 (ip), vehicle: saline with Tween-80",105 % of control
same,T/C,"dose: 6.25 mg/kg/injection, schedule: Q01DX009 (ip), vehicle: saline with Tween-80",100 % of control
same,T/C,[5],108 % of control
O=C1CSC(=S)N1c1ccc(C(F)(F)F)cc1,T/C,"dose: 25.0 mg/kg/injection, schedule: Q01DX001 (ip), vehicle: Klucel (hydroxypropylcellulose) (HPC)",93 % of control
same,T/C,"dose: 50.0 mg/kg/injection, schedule: Q01DX001 (ip), vehicle: Klucel (hydroxypropylcellulose) (HPC)",99 % of control
same,T/C,[17],110 % of control
OC(CO/N=C1/c2ccccc2CCC1Cc1ccccc1)CN1CCOCC1 (configuration not stated),T/C,[11],108 % of control
same,T/C,[12],116 % of control
same,T/C,[13],114 % of control
O=S(=O)(Cc1ccc(Cl)cc1)Cc1ccc(Cl)cc1,T/C,"dose: 100.0 mg/kg/injection, schedule: Q04DX003 (ip), vehicle: saline sonified",100 % of control
same,T/C,"dose: 200.0 mg/kg/injection, schedule: Q04DX003 (ip), vehicle: saline sonified",100 % of control
same,T/C,"dose: 400.0 mg/kg/injection, schedule: Q04DX003 (ip), vehicle: saline sonified",90 % of control
C/C=C/C=C\C(=O)O,T/C,[15],102 % of control
same,T/C,[16],93 % of control
same,T/C,"dose: 25.0 mg/kg/injection, schedule: Q01DX009 (ip), vehicle: saline",93 % of control
same,T/C,[3],104 % of control
OC1c2ccccc2OC2(N3CCCC3)CCCCC12 (configuration not stated),T/C,[1],98 % of control
same,T/C,[2],94 % of control
same,T/C,[3],91 % of control
O=NN1CCN(N=O)CC1,T/C,[6],113 % of control
same,T/C,[1],109 % of control
same,T/C,[14],109 % of control
same,T/C,[10],104 % of control
Nc1nnn(/N=C\C=N/n2nnc(N)n2)n1,T/C,[17],94 % of control
same,T/C,"dose: 200.0 mg/kg/injection, schedule: Q01DX001 (ip), vehicle: Klucel (hydroxypropylcellulose) (HPC)",102 % of control
same,T/C,"dose: 400.0 mg/kg/injection, schedule: Q01DX001 (ip), vehicle: Klucel (hydroxypropylcellulose) (HPC)",105 % of control
